The structures appear in SMILES notation. Some results are limits rather than exact numbers.

The IC50 is the midpoint of a concentration-inhibition curve.

The first assay deals with T1, Recombinant human Chk1 (GST-Chk1) (Homo sapiens, UniProt O14757).
T1 construct: made in house; host or cells: insect cells (baculovirus, Bac-to-Bac system)
T1 sequence (O14757 1-476): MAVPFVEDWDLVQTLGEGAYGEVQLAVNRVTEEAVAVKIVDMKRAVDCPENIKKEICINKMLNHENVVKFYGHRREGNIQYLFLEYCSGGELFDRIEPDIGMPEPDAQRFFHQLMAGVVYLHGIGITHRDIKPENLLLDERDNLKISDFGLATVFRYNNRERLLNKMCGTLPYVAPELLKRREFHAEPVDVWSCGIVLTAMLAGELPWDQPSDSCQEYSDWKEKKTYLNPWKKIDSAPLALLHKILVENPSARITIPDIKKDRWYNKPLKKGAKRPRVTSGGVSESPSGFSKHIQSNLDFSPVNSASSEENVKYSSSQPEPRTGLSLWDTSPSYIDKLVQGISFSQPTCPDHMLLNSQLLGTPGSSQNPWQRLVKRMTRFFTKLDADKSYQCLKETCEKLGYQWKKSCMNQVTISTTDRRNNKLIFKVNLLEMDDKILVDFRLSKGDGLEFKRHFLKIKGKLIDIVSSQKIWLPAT
Put plainly: Chk1 DELFIA Kinase Assay. It counts as biochemical. The settings on record: GST-Chk1 in vitro kinase assay, bound given in μM. The method, then: Recombinant human Chk1 was expressed as a fusion protein with glutathione S-transferase at the amino-terminus (GST-Chk1) using standard baculovirus vectors and (Bac-to-Bac®) insect cell expression system purchased from GIBCO™ Invitrogen. Recombinant protein expressed in insect cells was purified using glutathione sepharose (Amersham Biotech) using standard procedures described by the manufacturer.
Chk1 DELFIA® Kinase Assay:
Assays (25 μL) utilized 2 nM GST-Chk1 containing 10 mM Tris, pH 7.5, 20% glycerol, 50 mM sodium chloride (NaCl), 0.01% Surfact-Amps® 20, 1 μM peptide stubstrate (Biotin-GLYRSPSMPEN-amide) (SEQ ID NO: 2), 01.% BSA, 2 mM DTT, 4% DMSO, 600 μM ATP, 10 mM MgCl2 and reacted for 50 minutes at room temperature. Reactions were terminated with 100 μL of Stop buffer containing 1% BSA, 10 mM Tris, pH 8.0, 150 mM NaCl, 100 mM EDTA. Stopped reactions (100 μL) were transferred to 96 well NeutrAvidin plates (Pierce) to capture the biotin-peptide substrate during a 30 minute room temperature incubation. Wells were washed and reacted with 100 μL PerkinElmer Wallac Assay Buffer containing 21.5 ng/ml anti-phospho-Ser216-Cdc25c rabbit polyclonal antibody from Cell Signaling Technology (Beverly, Mass.) and 292 ng/ml europium labeled anti-rabbit-IgG for 1 hour at room temperature. Wells were washed and europium released from the bound antibody by addition of Enhancement Solution (100 μL) (PerkinElmer Wallac) and detected using a Perkin Elmer Wallac Envison™ 2100 multilabel reader using standard manufacturer settings.
On to `CCn1c(=O)c2c(C)[nH]nc2c2ccc(CCCN3CCCC3)cc21` [Compound I-42, 5-ethyl-3-methyl-7-(3-pyrrolidin-1-ylpropyl)-2,5-dihydro-4H-pyrazolo[4,3-c]quinolin-4-one], for which the IC50 is less than 1 µM.

`CCn1c(=O)c2c(C)[nH]nc2c2cc(-c3cnn(C)c3)ccc21` [Compound I-51, 5-ethyl-3-methyl-8-(1-methyl-1H-pyrazol-4-yl)-2,5-dihydro-4H-pyrazolo[4,3-c]quinolin-4-one]: the half-maximal inhibitory concentration (IC50) was less than 1 µM.

With `CCn1c(=O)c2c(C)[nH]nc2c2cc(CCCN3CCCC3)ccc21` [Compound I-54, 5-ethyl-3-methyl-8-(3-pyrrolidin-1-ylpropyl)-2,5-dihydro-4H-pyrazolo[4,3-c]quinolin-4-one], the IC50 was less than 1 µM.

Staying with this assay, now noted: GST-Chk1 kinase assay, bound given in nM.
For `Cc1[nH]nc2c1c(=O)n(CCCO)c1ccc(C#CCN3CCCC3)cc21` [Compound I-18, 5-(3-hydroxypropyl)-3-methyl-8-(3-pyrrolidin-1-ylprop-1-yn-1-yl)-2,5-dihydro-4H-pyrazolo[4,3-c]quinolin-4-one], the IC50 is less than 0.5 µM.

For the compound `CCn1c(=O)c2c(C)[nH]nc2c2cc(C#CCN3CCCCC3)ccc21` [Compound I-9, 5-ethyl-3-methyl-8-(3-piperidin-1-ylprop-1-yn-1-yl)-2,5-dihydro-4H-pyrazolo[4,3-c]quinolin-4-one], the IC50 was less than 0.5 µM.

For `CCn1c(=O)c2c(C)[nH]nc2c2cc(C#CCN(C(C)C)C(C)C)ccc21` [Compound I-36, 8-[3-(diisopropylamino)prop-1-yn-1-yl]-5-ethyl-3-methyl-2,5-dihydro-4H-pyrazolo[4,3-c]quinolin-4-one], the half-inhibitory concentration (IC50) was less than 0.5 µM.

Take `CCN(CC)C/C=C/c1ccc2c(c1)c1n[nH]c(C)c1c(=O)n2CC` [Compound I-43, 8-[(1E)-3-(diethylamino)prop-1-en-1-yl]-5-ethyl-3-methyl-2,5-dihydro-4H-pyrazolo[4,3-c]quinolin-4-one]: the IC50 was less than 0.5 µM.

`CCn1c(=O)c2c(C)[nH]nc2c2cc(C#CC(C)(C)NC(C)(C)C)ccc21` [Compound I-39, 8-[3-(tert-butylamino)-3-methylbut-1-yn-1-yl]-5-ethyl-3-methyl-2,5-dihydro-4H-pyrazolo[4,3-c]quinolin-4-one]: the half-inhibitory concentration (IC50) is less than 0.5 µM.

Take `CCn1c(=O)c2c(C)[nH]nc2c2cc(/C=C/CN(C(C)C)C(C)C)ccc21` [Compound I-44, 8-[(1E)-3-(diisopropylamino)prop-1-en-1-yl]-5-ethyl-3-methyl-2,5-dihydro-4H-pyrazolo[4,3-c]quinolin-4-one]: the IC50 is less than 0.5 µM.

In the case of `Cc1[nH]nc2c1c(=O)n(CCF)c1ccc(-c3ccc(CN4CCCC4)s3)cc21` [Compound I-47, 5-(2-fluoroethyl)-3-methyl-8-[5-(pyrrolidin-1-ylmethyl)-2-thienyl]-2,5-dihydro-4H-pyrazolo[4,3-c]quinolin-4-one], the concentration for half-maximal inhibition (IC50) was less than 0.5 µM.

On to `CCn1c(=O)c2c(C)[nH]nc2c2cc(C#CC(C)(C)N)ccc21` [Compound I-15, 8-(3-amino-3-methylbut-1-yn-1-yl)-5-ethyl-3-methyl-2,5-dihydro-4H-pyrazolo[4,3-c]quinolin-4-one], for which the 50% inhibitory concentration (IC50) is less than 0.5 µM.

Regarding `Cc1[nH]nc2c1c(=O)n(CC(F)(F)F)c1ccc(C#CCN3CCCC3)cc21` [Compound I-20, 3-methyl-8-(3-pyrrolidin-1-ylprop-1-yn-1-yl)-5-(2,2,2-trifluoroethyl)-2,5-dihydro-4H-pyrazolo[4,3-c]quinolin-4-one], the half-maximal inhibitory concentration (IC50) was less than 0.5 µM.

In the case of `CCn1c(=O)c2c(C)[nH]nc2c2cc(/C=C/CN3[C@@H](C)CC[C@@H]3C)ccc21` (racemic) [Compound I-40, 8-{(1E)-3-[(2S,5S)-2,5-dimethylpyrrolidin-1-yl]prop-1-en-1-yl}-5-ethyl-3-methyl-2,5-dihydro-4H-pyrazolo[4,3-c]quinolin-4-one], the IC50 is less than 0.5 µM.

As to `CCCn1c(=O)c2c(C)[nH]nc2c2cc(C#CCN3CCCC3)ccc21` [Compound I-19, 3-methyl-5-propyl-8-(3-pyrrolidin-1-ylprop-1-yn-1-yl)-2,5-dihydro-4H-pyrazolo[4,3-c]quinolin-4-one], the concentration for half-maximal inhibition (IC50) was less than 0.5 µM.

`CCn1c(=O)c2c(C)[nH]nc2c2cc(-c3ccc(CN4CCCC4)o3)ccc21` [Compound I-55, 5-ethyl-3-methyl-8-[5-(pyrrolidin-1-ylmethyl)-2-furyl]-2,5-dihydro-4H-pyrazolo[4,3-c]quinolin-4-one]: the IC50 was less than 0.5 µM.

For the compound `CCN(CC)CCc1ccc(-c2ccc3c(c2)c2n[nH]c(C)c2c(=O)n3CC)s1` [Compound I-82, 8-{5-[2-(diethylamino)ethyl]-2-thienyl}-5-ethyl-3-methyl-2,5-dihydro-4H-pyrazolo[4,3-c]quinolin-4-one], the IC50 is less than 0.5 µM.

Consider `Cc1[nH]nc2c1c(=O)n(C)c1ccc(C#CCO)cc21` [Compound I-24, 8-(3-hydroxyprop-1-yn-1-yl)-3,5-dimethyl-2,5-dihydro-4H-pyrazolo[4,3-c]quinolin-4-one], for which the IC50 was less than 0.5 µM.

On to `COCCn1c(=O)c2c(C)[nH]nc2c2cc(C#CCN3CCCC3)ccc21` [Compound I-5, 5-(2-methoxyethyl)-3-methyl-8-(3-pyrrolidin-1-ylprop-1-yn-1-yl)-2,5-dihydro-4H-pyrazolo[4,3-c]quinolin-4-one], for which the IC50 is less than 0.5 µM.

Take `CCn1c(=O)c2c(C)[nH]nc2c2ccc(CCCN3CCCC3)cc21` [Compound I-42, 5-ethyl-3-methyl-7-(3-pyrrolidin-1-ylpropyl)-2,5-dihydro-4H-pyrazolo[4,3-c]quinolin-4-one]: the IC50 was more than 0.5 µM.

For the compound `Cc1[nH]nc2c1c(=O)n(CC(F)F)c1ccc(C#CCN3CCCC3)cc21` [Compound I-4, 5-(2,2-difluoroethyl)-3-methyl-8-(3-pyrrolidin-1-ylprop-1-yn-1-yl)-2,5-dihydro-4H-pyrazolo[4,3-c]quinolin-4-one], the IC50 was less than 0.5 µM.

For `Cc1[nH]nc2c1c(=O)n(CC1CC1)c1ccc(C#CCN3CCCC3)cc21` [Compound I-6, 5-(cyclopropylmethyl)-3-methyl-8-(3-pyrrolidin-1-ylprop-1-yn-1-yl)-2,5-dihydro-4H-pyrazolo[4,3-c]quinolin-4-one], the IC50 was less than 0.5 µM.

As to `CCn1c(=O)c2c(C)[nH]nc2c2cc(C#CCN3[C@H](C)CCC[C@@H]3C)ccc21` [Compound I-37, 8-{3-[(2R,6S)-2,6-dimethylpiperidin-1-yl]prop-1-yn-1-yl}-5-ethyl-3-methyl-2,5-dihydro-4H-pyrazolo[4,3-c]quinolin-4-one], the half-inhibitory concentration (IC50) was less than 0.5 µM.

Take `Cc1[nH]nc2c1c(=O)n(C)c1ccc(C#CCN)cc21` [Compound I-23, 8-(3-aminoprop-1-yn-1-yl)-3,5-dimethyl-2,5-dihydro-4H-pyrazolo[4,3-c]quinolin-4-one]: the IC50 was less than 0.5 µM.

`Cc1[nH]nc2c1c(=O)[nH]c1ccc(C#CCN3CCCC3)cc12` [Compound I-13, 3-methyl-8-(3-pyrrolidin-1-ylprop-1-yn-1-yl)-2,5-dihydro-4H-pyrazolo[4,3-c]quinolin-4-one]: the half-maximal inhibitory concentration (IC50) was less than 0.5 µM.

Consider `CCn1c(=O)c2c(CCOC)[nH]nc2c2cc(C#CCN3CCCC3)ccc21` [Compound I-14, 5-ethyl-3-(2-methoxyethyl)-8-(3-pyrrolidin-1-ylprop-1-yn-1-yl)-2,5-dihydro-4H-pyrazolo[4,3-c]quinolin-4-one], for which the IC50 is less than 0.5 µM.

For `CCn1c(=O)c2c(C)[nH]nc2c2cc(C#CCN3CCCC3)ccc21` [Compound I-21, 5-ethyl-3-methyl-8-(3-pyrrolidin-1-ylprop-1-yn-1-yl)-2,5-dihydro-4H-pyrazolo[4,3-c]quinolin-4-one], the 50% inhibitory concentration (IC50) was less than 0.5 µM.

Regarding `CCn1c(=O)c2c(C)[nH]nc2c2cc(/C=C/CN3CCCC3)ccc21` [Compound I-25, 5-ethyl-3-methyl-8-[(1E)-3-pyrrolidin-1-ylprop-1-en-1-yl]-2,5-dihydro-4H-pyrazolo[4,3-c]quinolin-4-one], the half-maximal inhibitory concentration (IC50) is less than 0.5 µM.

As to `CCn1c(=O)c2c(C)[nH]nc2c2cc(C#CCN3CCN(C)CC3)ccc21` [Compound I-8, 5-ethyl-3-methyl-8-[3-(4-methylpiperazin-1-yl)prop-1-yn-1-yl]-2,5-dihydro-4H-pyrazolo[4,3-c]quinolin-4-one], the IC50 is less than 0.5 µM.

As for `CCn1c(=O)c2c(C)[nH]nc2c2cc(-c3cnn(C)c3)ccc21` [Compound I-51, 5-ethyl-3-methyl-8-(1-methyl-1H-pyrazol-4-yl)-2,5-dihydro-4H-pyrazolo[4,3-c]quinolin-4-one], the IC50 was more than 0.5 µM.

Take `CCCn1c(=O)c2c(C)[nH]nc2c2cc(-c3ccc(CN(C)C)s3)ccc21` [Compound I-56, 8-{5-[(dimethylamino)methyl]-2-thienyl}-3-methyl-5-propyl-2,5-dihydro-4H-pyrazolo[4,3-c]quinolin-4-one]: the IC50 is less than 0.5 µM.

Regarding `CCn1c(=O)c2c(C)[nH]nc2c2cc(CCCN3CCCC3)ccc21` [Compound I-54, 5-ethyl-3-methyl-8-(3-pyrrolidin-1-ylpropyl)-2,5-dihydro-4H-pyrazolo[4,3-c]quinolin-4-one], the IC50 is more than 0.5 µM.

The values above are taken from US20060035920A1, “Chk-1 inhibitors” (Millennium Pharmaceuticals, Inc., priority 2004, published 2006).
